# Source: patent US10767160B2, “Methods for modulating production profiles of recombinant proteins” (ARES TRADING S.A., priority 2015, dated 2020)
# Where two headings read alike, the source gives them in different places.
# Legend:
# [1] = tested on: CHO-S cells expressing IgG1 mAb1; test: Fed-batch culture in microplates, host cells expressing mAb1; assay type: cell-based, Chinese Hamster
# Method: (§1) Assays were performed with 2 CHO cell lines: • CHO-S cells expressing IgG1 mAb1, herein “Cells mAb1” or “mAb1 cells”. “mAb1” is a fully human monoclonal antibody directed against a soluble protein. Its isoelectric point (pI) is about 8.20-8.30. • CHO-K1 cells expressing IgG1 mAb2, herein “Cells mAb2” or “mAb2 cells”. “mAb2” is a humanised monoclonal antibody directed against a receptor found on the cell membrane. Its isoelectric point (pI) is about 9.30. 2) Cell Expansion
# (§2) Cells expressing mAb2 were inoculated at 0.2×10^6 cells per millilitre (mL), whereas cells expressing mAb1 were inoculated at 0.3×10^6 cells per mL.
# (§3) All assays were performed in fed-batch culture. The host cells were cultured in fed-batch system either in microplates (“Deep well plate”) or in Spin Tubes®, and incubated at 36.5° C., 90% relative humidity, 5% CO2 and 320 rpm shaking during 14 days.
# (§4) Viable cell density and viability were measured with the Guava easyCyte® flow cytometer or with the ViCell.
# (§5) Antibody titres were measured with the fortêBIO Octet® or with Biacore C®.
# (§6) Glycosylation profiles were established by capillary gel electrophoresis with laser-induced fluorescence (CGE-LIF). Dosages of aggregates and fragments were performed respectively via Size Exclusion High Performance Liquid Chromatography (SE-HPLC) and SDS-capillary gel electrophoresis.
# [2] = tested on: CHO-S cells expressing IgG1 mAb1; test: Fed-batch culture in Spin Tubes, host cells expressing mAb1; assay type: cell-based, Chinese Hamster
# Method: as §1, §2, §3, §4, §5, §6
# [3] = tested on: CHO-K1 cells expressing IgG1 mAb2; assay type: cell-based, Chinese Hamster
# Method: as §1, §2, §3, §4, §5, §6
# [4] = tested on: recombinant CHO cells; conditions: batch culture, end of production run, after 8 days of culture; cited from earlier work
# [5] = tested on: recombinant CHO cells; conditions: perfusion batch culture, within 6 days of treatment; cited from earlier work
# [6] = about 167 μM or about 417 μM, microplates
# [7] = up to 25 μM and 41.7 μM, microplates
# [8] = similar concentrations (8.5 μM), Spin tubes
# [9] = about 0.4 μM to about 17 μM, microplates
# [10] = about 83 μM to about 833 μM, microplates
# [11] = about 4.3 and/or about 8.5 μM, Spin Tubes
smiles,measurement,setting,value
Nc1c(S(=O)(=O)O)cc(Nc2ccc(Nc3nc(Cl)nc(Nc4ccccc4S(=O)(=O)O)n3)c(S(=O)(=O)O)c2)c2c1C(=O)c1ccccc1C2=O [Cibacron Blue 3GA],titre,"[1]; about 83 μM, microplates",still significantly increased
same,cell viability,[1]; [6],decreased
same,titre,[1]; [6],impact on the titre was observed
same,quantity of secreted recombinant protein (titre) compared to control,"[1]; about 8.3 to about 41.7 μM, microplates",1.5 fold
same,titre,[1]; [7],increased significantly
same,viable cell density,[1]; [7],increased significantly
same,specific productivity,"[2]; 8.5 μM, Spin tubes",significantly increased
same,titre increase at the end of the culture,"[2]; 8.5 μM, Spin tubes",1.25 factor
same,maximum density of viable cells,"[2]; 8.5 μM, days 6-9, Spin tubes",increased
same,viability compared to control,"[2]; 8.5 μM, starting on day 7, Spin tubes",decrease of viability
same,productivity of antibodies mAb2,[3]; [8],increased
same,titre multiplied at the end of cell culture,[3]; [8],1.2
O=S(=O)(O)c1cc(Nc2nc(Cl)nc(Nc3ccc(Nc4nc(Cl)nc(Nc5cc(S(=O)(=O)O)cc6cc(S(=O)(=O)O)c(N=Nc7ccccc7S(=O)(=O)O)c(O)c56)n4)cc3)n2)c2c(O)c(N=Nc3ccccc3S(=O)(=O)O)c(S(=O)(=O)O)cc2c1 [Reactive Red 120],viable cell density increase compared to control,"[1]; 17.3 μM, day 7, microplates",1.5 factor
same,titre increase compared to control,"[1]; 17.3 μM, day 14, microplates",1.3 factor
same,maximum titre relative to control cells,"[1]; 83 μM, microplates",1.2 fold
same,cell viability,[1]; [9],(slightly) reduced
same,titre,[1]; [9],increased significantly
same,viable cell density,[1]; [9],increased significantly
same,toxicity limit,"[1]; about 17 μM, microplates",did not seem to have been reached
same,cell viability,[1]; [10],decrease significantly
same,titre,[1]; [10],remained superior or equal to what was obtained with control cells
same,viable cell density,[1]; [10],decrease significantly
same,toxicity,"[1]; above 83 μM, microplates",becomes toxic
same,titre increase,"[2]; 8.6 μM, Spin Tubes",1.2 factor
same,cell viability compared to control,"[2]; about 4.3 and/or about 8.5 μM, after day 10, Spin Tubes",only slightly affected
same,viable cell density,"[2]; about 4.3 and/or about 8.5 μM, days 5-9, Spin Tubes",increased
same,specific productivity,[3]; [11],increase
same,titre,[3]; [11],increase
same,viability compared to control,"[3]; until the end of the culture, Spin Tubes",maintained
CCCC(=O)[O-].[Na+] [sodium butyrate],cell viability,[4],less than 45%
same,cell viability,[5],15%
